Measured values reported in US20100040630A1, “METHODS AND COMPOSITIONS FOR TREATING BONE LOSS” (priority 2008, published 2010).

Key:
[1] = tested on: patients with early rheumatoid arthritis; assay: Study J: cortical hand bone loss by digital X-ray radiogrammetry metacarpal cortical index (DXR-MCI); format: in vivo, human; details: for median percentage DXR-MCI change: change from baseline
Procedure: Generally, the study included 768 patients with active RA for <3 years who were naïve to MTX. Clinical data collections and radiographic examinations of hands were performed at baseline, and after 26, 52 and 104 weeks of therapy. Hand bone loss was assessed by digital X-ray radiogrammetry (DXR), primarily as metacarpal cortical index (MCI), on the same radiographs used for joint damage assessments.
(§1) The radiographic and clinical data from this 2-year, multi-centre, double-blind, randomised controlled study (Study J) was previously been described in detail (see Breedveld et al. (2006) Arthritis Rheum 54:26-37). The efficacy and safety of adalimumab plus MTX was compared with adalimumab monotherapy and with MTX monotherapy for 799 adult patients with early (<3 years), aggressive RA (mean erosion score of approximately 12 Sharp units, estimated annual TSS progression of approximately 27 Sharp units) who previously had not been treated with MTX, cyclophosphamide, cyclosporine, azathioprin or more than 2 other DMARDs (Breedveld et al. (2006), supra). […] Radiographs from hands and feet were scored according to a modified Sharp score (range 0-398) (Breedveld et al. (2006), supra).
(§2) Digital X-ray radiogrammetry (DXR) (Sectra, Linkoping, Sweden) was used to measure hand bone mineral density (BMD) and metacarpal cortical index (MCI) on the same digitized hand X-rays used for assessment of radiographic joint damage. DXR is a computer version of the traditional radiogrammetry technique,[13] and have improved the method and its precision substantially. DXR has been described in detail.[14,15,16] On hand radiographs, the computer automatically recognizes regions of interest (ROI) around the narrowest part of the second, third, and fourth metacarpal bone and measures cortical thickness, bone width, and porosity 118 times per cm. DXR-BMD is defined as: c X VPAcomb X (1-p), where c is a constant (determined by the result that DXR-BMD, on average, is equal to the mid-distal forearm region of the Hologic QDR-2000 device); VPA is volume per area; and p is porosity. DXR-MCI is defined as the combined cortical thickness divided by the outer cortical diameter and is a relative bone measure independent of bone size, bone length, and image capture setting.[16.17] Both DXR-BMD and DXR-MCI provide substantial degrees of precision.[17]
DXR-BMD was intended to be the main outcome measure in this study. However, many radiographs could not be analysed for BMD because of unknown image resolution. Generally, the equation for DXR-BMD is based on volume per area and requires a defined or known resolution, since a distance in a digitised radiograph cannot be measured when the resolution is unknown. Thus, DXR-MCI, which is a relative measure independent of image resolution, was used as the primary outcome measure. […] [19]
(§3) To avoid bias regarding dominant vs. non-dominant hand and to achieve better accuracy, mean value measurements from both hands were used.[10] If the radiograph from one hand could not be analysed or were missing, the radiograph from the available hand for all analyses at the different time points was used.
(§4) Since the data were not normally distributed, non-parametric analyses were conducted. No imputations were performed. Baseline values were compared between treatment groups with the Kruskall-Wallis method for continuous variables and with the chi-squared method for categorical variables. Comparisons of changes in hand BMD were conducted following methodologies parallel and similar to ones employed in the original Study J. Two groups were compared in a hierarchical order with the Mann-Whitney U test (i.e., two-sided comparison of the combination group vs. MTX, followed by two-sided comparisons between the monotherapy treatment arms, and finally two-sided comparisons between the adalimumab monotherapy and the combination group). Each pair-wise comparison was completed only if the previous comparison was statistically significant. […]

[2] = tested on: patients with early rheumatoid arthritis; assay: Study J: radiographic joint damage, modified Sharp score; format: in vivo, human
Excerpt: as §1

[3] = tested on: patients with early rheumatoid arthritis; assay: Study J: hand bone mineral density by digital X-ray radiogrammetry (DXR-BMD); format: in vivo, human
Excerpt: as §1, §2
For comparison, results for DXR-BMD are also provided. All images of unknown resolution were analyzed by assuming 254 dpi (the scanning resolution for the radiographs before scoring). Several of the radiographs were, however, clearly of a resolution other than 254 dpi, most likely because they had been printed in non-true size before scanning. All available images from baseline were analyzed, as well as 26, 52 and 104 weeks, by DXR-BMD and calculated mean metacarpal width. Based on analyses from other studies with a controlled resolution, [19] a deviation from baseline width greater than 2% was believed to likely indicate an incorrect value. With this 2% value as a cut-off, 23% of the radiographs were excluded from further DXR-BMD analyses. The flow chart in FIG. 1 illustrates the patients who were included in the DXR-MCI and DXR-BMD analyses.
as §3
as §4, with “significant. Bone loss over time was expressed as a negative value.” for “significant.”

[4] = tested on: early (<3 yrs), active, MTX-naive RA patients; assay: Subanalysis of Study J: DXR-MCI hand bone loss by clinical response (DAS28 subgroups); format: in vivo, human; details: for Mean % DXR-MCI change / median % DXR-MCI change: baseline to 52 weeks
Procedure: As described above, Study J compared the efficacy of adalimumab plus MTX vs. MTX alone and adalimumab alone in early (<3 yrs), active, MTX-naive RA patients. The subanalysis described herein involved the MTX monotherapy and the combination therapy groups. Hand bone loss was assessed by digital X-ray radiogrammetry metacarpal cortical index (DXR-MCI), calculated from digitized radiographs (DXR, Sectra, Sweden). […] MCI percentage change from baseline to 52 weeks was evaluated for patients with different clinical response. Disease activity was assessed by DAS28 scores at 52 weeks in 4 subgroups: Remission=DAS28<2.60; Low disease activity=DAS28 2.61-3.20; Moderate disease activity=DAS28 3.21-5.20; and high disease activity=DAS28>5.20. Non-parametric group comparisons were performed.

RA = details: 7.5 mg daily, compared with placebo; cited from earlier work
RA patients = RA patients receiving infliximab; cited from earlier work
[5] = High disease activity (DAS28>5.20)
[6] = Low disease activity (DAS28 2.61-3.20)
[7] = Moderate disease activity (DAS28 3.21-5.20)

Row | Compound | median percentage DXR-MCI change ([1]; 26 weeks) | median percentage DXR-MCI change ([1]; 52 weeks) | median percentage DXR-MCI change ([1]; 104 weeks) | mean radiographic change in the modified Sharp score ([2]; 26 weeks) | median radiographic change in the modified Sharp score ([2]; 26 weeks) | mean radiographic change in the modified Sharp score ([2]; 52 weeks) | median radiographic change in the modified Sharp score ([2]; 52 weeks) | mean radiographic change in the modified Sharp score ([2]; 104 weeks) | median radiographic change in the modified Sharp score ([2]; 104 weeks) | median DXR-BMD percentage change ([3]; 26 weeks) | median DXR-BMD percentage change ([3]; 52 weeks) | median DXR-BMD percentage change ([3]; 104 weeks) | further results
1 | CN(Cc1cnc2nc(N)nc(N)c2n1)c1ccc(C(=O)N[C@@H](CCC(=O)O)C(=O)O)cc1 [MTX, methotrexate] | −1.42% | −2.87% | −4.62% | 3.4 units | 1.0 units | 5.1 units | 2.0 units | 6.4 units | 2.0 units | −1.20% | −1.86% | −3.58% | difference in bone loss among remission, low, moderate and high disease activity subgroups (in words) ([4]; 52 weeks): numerical differences; DXR-MCI percentage change ([4]; 52 weeks, pooled subgroup moderate and high disease activity (DAS28)): −4.65%; Mean % DXR-MCI change [4, 5]: −4.64%; median % DXR-MCI change [4, 5]: −3.02%; Mean % DXR-MCI change [4, 6]: −2.98%; median % DXR-MCI change [4, 6]: −2.20%; Mean % DXR-MCI change [4, 7]: −4.65%; median % DXR-MCI change [4, 7]: −3.33%; Mean % DXR-MCI change ([4]; Remission (DAS28<2.60)): −2.99%; median % DXR-MCI change ([4]; Remission (DAS28<2.60)): −2.14%
2 | C[C@]12C=CC(=O)C=C1CC[C@@H]1[C@@H]2[C@@H](O)C[C@@]2(C)[C@H]1CC[C@]2(O)C(=O)CO [prednisolone] | – | – | – | – | – | – | – | – | – | – | – | – | rate of hand bone loss (in words) (RA): significantly reduce; rate of radiographic joint damage (in words) (RA): significantly reduce
3 | adalimumab | −1.33% | −2.45% | −4.03% | 2.1 units | 0.5 units | 3.3 units | 0.5 units | 4.8 units | 1.0 units | −0.96% | −1.97% | −2.40% | effect on hand bone loss (in words) ([1]; early RA, Study J): protected against hand bone loss; hand bone loss in relation to clinically assessed disease activity (in words) ([4]; 52 weeks, DAS28 subgroups): reduces hand bone loss independent of clinically assessed disease activity
4 | infliximab | – | – | – | – | – | – | – | – | – | – | – | – | bone loss in hip and spine (in words) (RA patients): arrested; hand bone loss (in words) (RA patients): hand bone loss was not halted
